In ChEMBL document CHEMBL5154901, “Development of Predictive Classification Models for Whole Cell Antimycobacterial Activity of Benzothiazinones” (J Med Chem, 2022):
In brackets after ≈: the same amount, converted by molar mass.

Key:
[1] = Cytotoxicity against human HeLa cells assessed as reduction in cell viability incubated for 72 hrs by methylene blue staining based colorimetric assay; format: toxicity
Mycolicibacterium vaccae = assay: Antimycobacterial activity against Mycobacterium vaccae (JMRC:STI:10670) assessed as reduction in bacterial growth incubated for 42 hrs by serial dilution method; format: functional
[2] = Mycolicibacterium vaccae, JMRC:STI:10670, read-out: MIC

Row | Compound | MIC (Mycolicibacterium vaccae; [2]) | MIC (Mycolicibacterium vaccae) | CC50 at 72 h [1]
1 | CN1CCN(C(=O)CC(C)(C)CC(=O)N2CCN(c3nc(=O)c4cc(C(F)(F)F)cc([N+](=O)[O-])c4s3)CC2)CC1 | 5.34 µM (≈ 3.12 µg/mL) | – | –
2 | O=c1nc(N2CC[C@@](O)(c3ccc(F)cc3)[C@H](O)C2)sc2c([N+](=O)[O-])cc(C(F)(F)F)cc12 | 0.0515 µM (≈ 0.025 µg/mL) | – | 66.1 µM
3 | O=c1nc(N2CCn3cc(-c4ccc(F)cc4F)nc3C2)sc2c([N+](=O)[O-])cc(C(F)(F)F)cc12 | 0.196 µM (≈ 0.0998 µg/mL) | – | –
4 | O=c1nc(N2CC[C@](O)(COc3ccc(F)cc3)[C@@H](O)C2)sc2c([N+](=O)[O-])cc(C(F)(F)F)cc12 | 0.0243 µM (≈ 0.0125 µg/mL) | – | 34.3 µM
5 | O=c1nc(Nc2ccc(CCO)cc2)sc2c([N+](=O)[O-])cc(C(F)(F)F)cc12 | 15.2 µM (≈ 6.25 µg/mL) | – | –
6 | CN(CCCCCCO)c1nc(=O)c2cc(C(F)(F)F)cc([N+](=O)[O-])c2s1 | 0.0308 µM (≈ 0.0125 µg/mL) | – | 101 µM
7 | O=c1nc(N2CC[C@@H](c3ccccc3)[C@H](O)C2)sc2c([N+](=O)[O-])cc(C(F)(F)F)cc12 | 0.0277 µM (≈ 0.0125 µg/mL) | – | > 93 µM
8 | CN(CCO)c1nc(=O)c2cc(C(F)(F)F)cc([N+](=O)[O-])c2s1 | 0.0716 µM (≈ 0.025 µg/mL) | – | 80.2 µM
9 | COc1cc2c(cc1OC)[C@@H](C[C@@H](O)c1ccccc1)N(c1nc(=O)c3cc(C(F)(F)F)cc([N+](=O)[O-])c3s1)CC2 | 0.0425 µM (≈ 0.025 µg/mL) | – | > 85 µM
10 | CN1CCN(C(=O)CCCC(=O)N2CCN(c3nc(=O)c4cc(C(F)(F)F)cc([N+](=O)[O-])c4s3)CC2)CC1 | 11.2 µM (≈ 6.23 µg/mL) | – | –
11 | O=c1nc(N2CCn3cc(-c4ccc(OC(F)(F)F)cc4)nc3C2)sc2c([N+](=O)[O-])cc(C(F)(F)F)cc12 | 1.4 µM (≈ 0.78 µg/mL) | – | –
12 | O=C(O)[C@@H]1CN(c2nc(=O)c3cc(C(F)(F)F)cc([N+](=O)[O-])c3s2)Cc2ccccc21 | – | 3.5 10^3nM | –
13 | O=c1nc(N2CCc3[nH]nc(-c4ccccc4)c3C2)sc2c([N+](=O)[O-])cc(C(F)(F)F)cc12 | – | 6.6 10^3nM | –
14 | CC(C)n1c2c([n+](C)c1-c1ccccc1)CN(c1nc(=O)c3cc(C(F)(F)F)cc([N+](=O)[O-])c3s1)C2 | 0.0477 µM | – | –
15 | O=c1nc(N2CCN(c3ccc(O)cc3)CC2)sc2c([N+](=O)[O-])cc(C(F)(F)F)cc12 | 1.72 µM (≈ 0.778 µg/mL) | – | –
16 | O=c1nc(N2CC[C@@](O)(COc3ccc(F)cc3)[C@H](O)C2)sc2c([N+](=O)[O-])cc(C(F)(F)F)cc12 | 0.0485 µM (≈ 0.025 µg/mL) | – | 18.4 µM
17 | O=c1nc(N2CCNCC2)sc2c([N+](=O)[O-])cc(C(F)(F)F)cc12 | 17.3 µM (≈ 6.23 µg/mL) | – | –
18 | CN(c1ccc(O)cc1)c1nc(=O)c2cc(C(F)(F)F)cc([N+](=O)[O-])c2s1 | 126 µM (≈ 50.1 µg/mL) | – | –
19 | CN(c1ccc(CN)cc1)c1nc(=O)c2cc(C(F)(F)F)cc([N+](=O)[O-])c2s1 | 3.8 µM (≈ 1.56 µg/mL) | – | –
20 | CC(C)n1c(-c2ccccc2)nc2c1CN(c1nc(=O)c3cc(C(F)(F)F)cc([N+](=O)[O-])c3s1)C2 | 0.798 µM (≈ 0.4 µg/mL) | – | –
21 | O=c1nc(N2CCn3nnc(-c4ccccc4)c3C2)sc2c([N+](=O)[O-])cc(C(F)(F)F)cc12 | 1.64 µM (≈ 0.778 µg/mL) | – | –
22 | CN1CCC(CCCC2CCN(c3nc(=O)c4cc(C(F)(F)F)cc([N+](=O)[O-])c4s3)CC2)CC1 | 0.124 µM (≈ 0.0618 µg/mL) | – | 20.1 µM
23 | O=c1nc(N2CC[C@](O)(c3ccccc3)[C@@H](O)C2)sc2c([N+](=O)[O-])cc(C(F)(F)F)cc12 | 0.0267 µM (≈ 0.0125 µg/mL) | – | 73 µM
24 | O=C(c1ccc2[nH]ncc2c1)N1CCN(c2nc(=O)c3cc(C(F)(F)F)cc([N+](=O)[O-])c3s2)CC1 | 6.19 µM (≈ 3.12 µg/mL) | – | –
25 | O=c1nc(N2CCn3cc(-c4ccccc4)nc3C2)sc2c([N+](=O)[O-])cc(C(F)(F)F)cc12 | – | 53 10^3nM | –

Now from value to compound, other results behind:

Row | MIC (Mycolicibacterium vaccae; [2]) | MIC (Mycolicibacterium vaccae) | Compound | CC50 at 72 h [1]
26 | 0.0537 µM (≈ 0.025 µg/mL) | – | O=c1nc(N2CCC(c3ccc(CO)cc3)CC2)sc2c([N+](=O)[O-])cc(C(F)(F)F)cc12 | 19.6 µM
27 | 3.09 µM (≈ 1.56 µg/mL) | – | O=C(c1ccc2cn[nH]c2c1)N1CCN(c2nc(=O)c3cc(C(F)(F)F)cc([N+](=O)[O-])c3s2)CC1 | –
28 | – | 13 10^3nM | Cn1c(-c2ccccc2)nc2c1CN(c1nc(=O)c3cc(C(F)(F)F)cc([N+](=O)[O-])c3s1)C2 | –
29 | 0.0579 µM (≈ 0.031 µg/mL) | – | O=c1nc(N2CCC(Oc3ccc(OC(F)(F)F)cc3)CC2)sc2c([N+](=O)[O-])cc(C(F)(F)F)cc12 | > 93 µM
30 | 0.992 µM (≈ 0.4 µg/mL) | – | O=c1nc(N2CCC(CCO)CC2)sc2c([N+](=O)[O-])cc(C(F)(F)F)cc12 | 91.5 µM
31 | 0.13 µM (≈ 0.0622 µg/mL) | – | CC(=O)c1ccc(N2CCN(c3nc(=O)c4cc(C(F)(F)F)cc([N+](=O)[O-])c4s3)CC2)cc1 | > 105 µM
32 | 0.0286 µM (≈ 0.0125 µg/mL) | – | O=c1nc(N2Cc3ccccc3[C@H](CO)C2)sc2c([N+](=O)[O-])cc(C(F)(F)F)cc12 | 86.4 µM
33 | 0.0407 µM (≈ 0.025 µg/mL) | – | CN1CCN(C(=O)C(F)(F)C(F)(F)C(=O)N2CCN(c3nc(=O)c4cc(C(F)(F)F)cc([N+](=O)[O-])c4s3)CC2)CC1 | > 81.4 µM
34 | 0.0624 µM (≈ 0.031 µg/mL) | – | COc1cc(OC)cc(N2CCN(c3nc(=O)c4cc(C(F)(F)F)cc([N+](=O)[O-])c4s3)CC2)c1 | > 101 µM
35 | 0.016 µM (≈ 0.00801 µg/mL) | – | O=c1nc(N2CCN(CC(F)(F)c3ccccc3)CC2)sc2c([N+](=O)[O-])cc(C(F)(F)F)cc12 | > 100 µM
36 | 0.0154 µM (≈ 0.00798 µg/mL) | – | O=c1nc(N2CCN(CC(F)(F)c3ccc(F)cc3)CC2)sc2c([N+](=O)[O-])cc(C(F)(F)F)cc12 | 87.2 µM
37 | 0.0985 µM (≈ 0.05 µg/mL) | – | O=C(CN1CCN(c2nc(=O)c3cc(C(F)(F)F)cc([N+](=O)[O-])c3s2)CC1)NCc1ccccc1 | 57.1 µM
